This note sets out measurements from US20240122212A1 (SUNTORY HOLDINGS LIMITED, priority 2020, published 2024).

Test [1] can be described thus: Basic taste quality sensory evaluation by trained panelists, spitting test, against 6% sucrose control (Example 1). It is filed as in vivo, human. Here is the method:
In each evaluation item, the rating on a scale of −3 point to 3 point was performed, with the case where there is no difference from the control solution being 0. Quicker in sweetness onset, higher sweetness intensity, shorter lingering sweet aftertaste, lower bitterness intensity, and shorter lingering bitter aftertaste compared to the control were rated near 3 points. Slower in sweetness onset, lower sweetness intensity, longer lingering sweet aftertaste, higher bitterness intensity, and longer lingering bitter aftertaste compared to the control were rated near −3 points. That is, the closer to 0 point, the closer to the control. The evaluation was carried out by those (4 persons) who received sensory trainings as panelists by spitting test. The amount of a sweet substance contained in each sample solution was adjusted to be equal to the control solution on the calculation. […] The energy (kcal/100 ml) was calculated from the amount of the sweetener added.

The nature of test [2]: Degree of sweetness relative to sucrose. The text has this:
The “sweetness intensity” means an intensity of sweetness of a substance. […] A numerical value obtained by multiplying the degree of sweetness by a concentration Brix value of glucose is the sweetness intensity of glucose in terms of sucrose. Thus, when a concentration of glucose in terms of sucrose is Brix 1.5, the sweetness intensity of glucose is 0.65×1.5=0.975. The sweetness intensity of a sweetener in terms of sucrose can be calculated from a degree of sweetness shown in the following table or a value of a known degree of sweetness.
For example, when the sweetness intensity of sucrose per unit concentration Brix 1 is defined as a degree of sweetness of 1, a degree of sweetness of rebaudioside D is about 200 to 250 (median value 225), a degree of sweetness of rebaudioside M is about 200 to 260 (median value 230), a degree of sweetness of rebaudioside B is about 325, a degree of sweetness of rebaudioside A is about 200 to 300 (median value 250), a degree of sweetness of rebaudioside N is about 200 to 250 (median value 225), a degree of sweetness of rebaudioside O is about 200 to 250 (median value 225), a degree of sweetness of rebaudioside E is about 70 to 80 (median value 75), a degree of sweetness of a Luo han guo extract (containing 40% of Mog V) is about 110 to 150 (median value 130), a degree of sweetness of mogroside V is about 240 to 300 (median value 270), and a degree of sweetness of thaumatin is about 2,000, and a degree of sweetness of brazzein is about 500 to 2,000 (median value 1,250). The numerical value obtained by multiplying these degrees of sweetness by a concentration (w/v % (considered to be the same as w/w % in the case of a beverage)) of the high-intensity sweetener in a fruit juice beverage is a sweetness intensity of the high-intensity sweetener. The relative ratio in degrees of sweetness of various sweeteners to the degree of sweetness of 1 of sucrose can be determined from a known sugar sweetness conversion table, and the like. In the present description, when a degree of sweetness is shown in a numerical value range, the median value may be used. However, a sweetener having different values in a degree of sweetness by literatures, a relative ratio in a degree of sweetness to the degree of sweetness of 1 of sucrose can be defined by a sensory test. Examples of such a sensory test include a method in which samples were prepared by adding sucrose having a sweetness intensity of Brix 3.0 to 5.0 in 0.5 increments to pure water, and of which a sucrose-added sample having a sweetness intensity equal to an aqueous solution of a sweetener in a predetermined concentration is selected.
Additionally, for a sweetener with a variable degree of sweetness as a sweetness intensity increases, degrees of sweetness in different concentrations are actually measured and plotted whereby a degree of sweetness in a predetermined concentration may be calculated from the obtained approximate curve.

[3] abbreviates: scale −3 to 3, 0 = no difference from 6% sucrose control, D-allulose 8.57 w/v %, D-arabinose 10 w/v % in pure water, 4 panelists.

For `O=C[C@@H](O)[C@H](O)[C@H](O)CO` [D-Arabinose], the “taste quality compared with aqueous solutions containing D-allulose” value in test [1] (aqueous solutions, Example 1) was “lower bitterness intensity and shorter lingering bitter aftertaste with the taste quality closer to sucrose”. Besides, in test [1] (setting [3]), the Bitterness intensity is listed as 0 point, the Lingering bitter aftertaste was −0.125 point, the Lingering sweet aftertaste amounted to 0 point and the “Quickness in sweetness onset” value was determined as 0.250 point. This compound also had a Sweetness intensity in test [1] (setting [3]) of 0 point. In test [2] (according to the confirmation by the present inventors), the “degree of sweetness, times as much as that of sucrose” value was “about 0.6 times”. Moreover, in test [2] (value used to design the sample solutions), the “degree of sweetness, times as much as that of sucrose” value is 0.6 times. Also, the “sweetness intensity, times as much as that of sucrose” value in test [2] (value used to design the sample solutions of Example 5) was 0.6 times.
